Laboratory results published in PubChem BioAssay (NCI).
Values joined by “and” are separate entries in the source; they are usually repeats but may differ in a detail not shown here. Equal values may be shown once.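 Results reflect a 48-hour exposure of cells in 96-well plates to compound at five concentrations. Abbreviation: GI50, concentration required for 50% inhibition of growth. The concentration for full growth arrest is given as TGI.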

Experiments:
Experiment in all cases: DTP human tumour cell line panel, 48 h
CCRF-CEM leukemia = tested on: CCRF-CEM leukemia
HCT-15 colon = tested on: HCT-15 colon
LOX IMVI melanoma = tested on: LOX IMVI melanoma
MALME-3M melanoma = tested on: MALME-3M melanoma
MCF7 breast = tested on: MCF7 breast
MOLT-4 leukemia = tested on: MOLT-4 leukemia
NCI/ADR-RES ovarian = tested on: NCI/ADR-RES ovarian
RPMI-8226 leukemia = tested on: RPMI-8226 leukemia
SNB-75 CNS = tested on: SNB-75 CNS
UACC-62 melanoma = tested on: UACC-62 melanoma

SMILES	GI50 (CCRF-CEM leukemia)	TGI (CCRF-CEM leukemia)	GI50 (HCT-15 colon)	TGI (HCT-15 colon)	GI50 (LOX IMVI melanoma)	TGI (LOX IMVI melanoma)	GI50 (MALME-3M melanoma)	TGI (MALME-3M melanoma)	GI50 (MCF7 breast)	TGI (MCF7 breast)	GI50 (MOLT-4 leukemia)	TGI (MOLT-4 leukemia)	GI50 (NCI/ADR-RES ovarian)	TGI (NCI/ADR-RES ovarian)	GI50 (RPMI-8226 leukemia)	TGI (RPMI-8226 leukemia)	GI50 (SNB-75 CNS)	TGI (SNB-75 CNS)	GI50 (UACC-62 melanoma)	TGI (UACC-62 melanoma)
Nc1ccccc1C#C/C=C\C#Cc1cccc(O)c1	8.12 µM	> 44 µM	2.04 µM	13.9 µM	0.579 µM	10.8 µM	11.3 µM	> 43.4 µM	0.918 µM	11.2 µM	3.21 µM	23.7 µM	2.39 µM	10.3 µM	2.51 µM	> 38.2 µM	1.36 µM	13.5 µM	1.87 µM	6.6 µM
N#Cc1nc2c(S(=O)(=O)c3ccc(Cl)cc3)c(N)n(CCCN3CCOCC3)c2nc1C#N	2.19 µM	6.28 µM	4.32 µM	27.1 µM	4.76 µM	17.3 µM	3.55 µM	18.1 µM	3.76 µM	16.5 µM	2.63 µM	9.64 µM	33.2 µM	> 100 µM	4.68 µM	41 µM	11.1 µM	48.3 µM	10.8 µM	31.1 µM
COc1cc(/C=C/C(=O)c2ccc(F)cc2)ccc1OCCCN1CCN(CC(=O)Nc2ccc(Cl)cc2C(=O)c2ccccc2Cl)CC1	2.65 µM	9.3 µM	4.09 µM	19.5 µM	3.97 µM	14.6 µM	4.23 µM	15.7 µM	2.69 µM	12.1 µM	3.23 µM	> 100 µM	13 µM	> 100 µM	2 µM	5.46 µM	6.05 µM	34.1 µM	10.4 µM	22.9 µM
Cc1cnc(CNC(=O)c2c(=O)c3ccc(N4CCCN(C)CC4)nc3n3c2sc2ccccc23)cn1	1.96 µM	19.9 µM	1.03 µM	7.31 µM	0.331 µM	2.05 µM	9.24 µM	25.8 µM	0.804 µM	16.4 µM	0.0839 µM	10.7 µM	1.18 µM	30.6 µM	1.54 µM	6.1 µM	9.55 µM	25.8 µM	7.69 µM	28.1 µM
O=[N+]([O-])c1ccc(N=Nc2ccc(O)c3ccccc23)cc1	4.24 µM	35.7 µM	3.29 µM	> 100 µM	2.5 µM	13.6 µM	12 µM	32.7 µM	2.42 µM	> 100 µM	5.22 µM	> 100 µM	2.41 µM	55.8 µM	1.59 µM	6.55 µM	2.45 µM	> 100 µM	4.76 µM	32.9 µM
O=[N+]([O-])c1ccc(N2CCC(CCCC3CCN(c4ccc([N+](=O)[O-])cc4[N+](=O)[O-])CC3)CC2)c([N+](=O)[O-])c1	–	35.9 µM	–	41.6 µM	–	30.2 µM	–	42.4 µM	–	28.3 µM	–	53.2 µM	–	57.7 µM	–	43.3 µM	–	32.8 µM	–	24.4 µM
O=c1c(O)c(-c2ccc(O)c(O)c2)oc2cc(O)cc(O)c12	10.7 µM	> 100 µM and 87.7 µM	10.1 µM	> 100 µM	11.4 µM	> 84.1 µM and 35.9 µM	62 µM	> 100 µM	7.95 µM	> 100 µM	13 µM	> 100 µM	12.8 µM	63.8 µM	10.2 µM	86.9 µM	4.42 µM	39.2 µM and > 100 µM	4.74 µM	25.5 µM and > 100 µM
COc1ccc(/C=C(\C(=O)NCc2cccnc2)S(=O)(=O)c2ccccc2)cc1OC	2.26 µM	15.8 µM	2.85 µM	11.7 µM	3.09 µM	11.8 µM	3.06 µM	11.9 µM	2.41 µM	12.7 µM	3.35 µM	89.1 µM	18.2 µM	> 100 µM	2.43 µM	6.78 µM	2.08 µM	7.84 µM	1.76 µM	3.74 µM
C[C@]12CC[C@@H]3c4ccc(O)cc4CC[C@H]3[C@@H]1Cc1cnc(N)nc12	15.3 µM	40 µM	16.5 µM	39.1 µM	17.4 µM	31.3 µM	15.6 µM	29.8 µM	18.8 µM	47.7 µM	13 µM	41.1 µM	17.7 µM	41.4 µM	12.7 µM	31.4 µM	16.5 µM	42.9 µM	13.6 µM	27.2 µM
CC(C)(C)c1[nH]nc2c1C(c1cc3ccccc3[nH]c1=O)Nc1cc(C(=O)OCc3ccccc3)ccc1N2 (centres undefined)	3.23 µM	> 100 µM	4.65 µM	> 100 µM	3.35 µM	> 100 µM	2.49 µM	7.47 µM	3.37 µM	> 100 µM	3.3 µM	44.1 µM	> 100 µM	> 100 µM	2.71 µM	> 100 µM	4.37 µM	> 100 µM	1.9 µM	3.9 µM
Cc1cn2c(/C=C3/C(=O)Nc4ccc(O)cc43)c(C)nc2s1	1.25 µM	–	3.78 µM	> 58.5 µM	4.46 µM	99.6 µM	0.946 µM	19.5 µM	1.6 µM	> 33.6 µM	4.46 µM	48.6 µM	20.9 µM	> 70.6 µM	1.93 µM	> 20.6 µM	4.61 µM	> 100 µM	1.16 µM	11.4 µM
CN(C)CC1CCC2=C(C1=O)C(c1ccc(Cl)c(Cl)c1)C1=C(CCC(CN(C)C)C1=O)O2 (centres undefined)	3.33 µM	26.3 µM	8.75 µM	29.2 µM	3.14 µM	15.2 µM	14.9 µM	29.5 µM	1.26 µM	3.27 µM	5.18 µM	22.1 µM	19.4 µM	57.4 µM	0.389 µM	4.36 µM	12.4 µM	25.8 µM	15.3 µM	28.7 µM
O=C1NOC(c2ccc(O)cc2)(c2ccc(O)cc2)c2ccccc21	> 100 µM	> 100 µM	> 100 µM	> 100 µM	> 100 µM	> 100 µM	> 100 µM	> 100 µM	> 100 µM	> 100 µM	> 100 µM	> 100 µM	> 100 µM	> 100 µM	> 100 µM	> 100 µM	> 100 µM	> 100 µM	> 100 µM	> 100 µM
NC(=O)c1ccc(-c2nc(-c3ccc4c(c3)OCO4)c(-c3ccccn3)[nH]2)cc1	> 25 µM and 38.4 µM	> 100 µM	> 25 µM and 23 µM	> 25 µM and 63.6 µM	> 25 µM and 26.9 µM	> 84.4 µM	> 25 µM and 38.2 µM	> 100 µM	> 25 µM and 31.9 µM	> 83.8 µM	> 25 µM and 38.8 µM	> 100 µM	> 25 µM and 32.3 µM	> 100 µM	24.3 µM and 20.7 µM	> 69.6 µM	> 16.5 µM and 21.3 µM	> 90.8 µM	> 25 µM and 35.1 µM	> 100 µM
COc1cc(OC)c(C(=O)/C=C/c2cccc(C#N)c2)c(OC)c1	1.03 µM	> 50 µM	0.853 µM	3.02 µM	1.23 µM	5.18 µM	1.76 µM	8.13 µM	1.33 µM	6.72 µM	1.13 µM	> 50 µM	1.44 µM	10.5 µM	0.981 µM	4.31 µM	1.31 µM	5.62 µM	1.22 µM	4.92 µM
COc1ccc(C2=CC(c3ccc(OC)cc3Br)N3C=CSC3=N2)cc1 (centres undefined)	2.69 µM	> 100 µM	1.49 µM	3.41 µM	2 µM	4.03 µM	14 µM	32.3 µM	1.51 µM	11.2 µM	2.93 µM	9.64 µM	4.43 µM	29 µM	1.86 µM	7.29 µM	15.6 µM	43.7 µM	2.79 µM	10.7 µM
Cn1cccc1-c1cc(-c2ccc(Br)cc2)[nH]c(=O)c1C#N	> 100 µM	> 100 µM	> 100 µM	> 100 µM	> 100 µM	> 100 µM	> 100 µM	> 100 µM	> 100 µM	> 100 µM	57.1 µM	> 100 µM	> 100 µM	> 100 µM	> 100 µM	> 100 µM	25.4 µM	> 100 µM	49.2 µM	> 100 µM
CCOC(=O)c1cc2c(n1Cc1cc(OC)c(OC)c(OC)c1)-c1oncc1CCC2	0.318 µM	5.38 µM	0.186 µM	> 100 µM	0.401 µM	> 35.7 µM	0.061 µM	> 52.3 µM	0.0589 µM	> 66.5 µM	0.406 µM	> 44.8 µM	0.0614 µM	> 100 µM	0.42 µM	21.9 µM	0.111 µM	> 61.7 µM	0.0666 µM	> 40.3 µM
CC1=C(C(=O)N(C)c2ccc(Cl)c(C(=O)OC(C)C)c2)SCCO1	–	> 100 µM	–	> 100 µM	–	> 100 µM	–	> 100 µM	–	> 100 µM	–	> 100 µM	–	> 100 µM	–	> 100 µM	–	90.8 µM	–	> 100 µM
CC(C)CCNCC(O)Cn1c2ccccc2c2ccccc21 (centres undefined)	12.8 µM	31.7 µM	11.9 µM	26.7 µM	5.6 µM	18.5 µM	7.17 µM	23 µM	2.72 µM	10.3 µM	10.2 µM	25.9 µM	14.2 µM	30.7 µM	3.1 µM	11.2 µM	6.54 µM	21 µM	10.4 µM	22.4 µM
NC(=O)Nc1cc(-c2cccc(F)c2)sc1C(=O)N[C@H]1CCCNC1	0.0414 µM and 0.124 µM	> 2.96 µM and 3 µM	1.3 µM and 1.96 µM	> 7.18 µM and 10.7 µM	0.0603 µM and 0.199 µM	1.04 µM and 1.12 µM	0.232 µM and 0.729 µM	4.95 µM and 6.8 µM	0.0285 µM and 0.144 µM	> 10 µM and 13.6 µM	0.0606 µM and 0.26 µM	> 10 µM and 1.8 µM	2.19 µM and 3.16 µM	> 10 µM and 19.8 µM	0.66 µM and 0.482 µM	> 8.22 µM and 6.11 µM	0.0316 µM and 0.102 µM	1.01 µM and 1.07 µM	0.388 µM and 0.353 µM	> 5.1 µM and 3.43 µM
CC(=O)[O][Sn]([CH2]c1ccccc1)([CH2]c1ccccc1)[CH2]c1ccccc1	> 4.58 µM	> 6.27 µM	4.25 µM	> 4.64 µM	3.79 µM	> 4.64 µM	> 4.38 µM	> 6.05 µM	> 10 µM	> 10 µM	> 10 µM	> 10 µM	> 10 µM	> 10 µM	3.65 µM	> 4.64 µM	> 4.28 µM	> 5.68 µM	> 10 µM	> 10 µM
O=C1C(c2cnc3ccccc3n2)=C(O)c2ccccc21	–	> 100 µM	–	9.75 µM	–	> 61.5 µM	–	> 100 µM	–	> 100 µM	–	> 100 µM	–	> 100 µM	–	> 100 µM	–	79.9 µM	–	> 100 µM
COc1ccc(N(/C=C/C(=O)C(F)(F)F)CC(=O)c2ccc(F)cc2)cc1	19.7 µM	95.1 µM	16 µM	38.7 µM	16.4 µM	39.1 µM	16.5 µM	41.4 µM	43.1 µM	> 100 µM	16.1 µM	43.6 µM	31.2 µM	87.4 µM	15.2 µM	47.3 µM	> 100 µM	> 100 µM	12 µM	38.3 µM
Cc1ccc(C(=O)NC2CCC2)cc1-c1ccc(C(=O)NCC2CC2)cc1	> 25 µM	> 25 µM	> 25 µM	> 25 µM	> 25 µM	> 25 µM	> 25 µM	> 25 µM	> 25 µM	> 25 µM	> 25 µM	> 25 µM	> 25 µM	> 25 µM	> 25 µM	> 25 µM	> 25 µM	> 25 µM	> 25 µM	> 25 µM
